The source of these data is patent US20180220653A1, “Methods for Identifying Compounds that Directly Bind to Insect Transient Receptor Potential Channels” (priority 2015, published 2018).

Where two headings read alike, the source gives them in different places.

In general, Ki refers to a measure of affinity in units of concentration, obtained from inhibition or displacement.

For series [1], the system named is Nan and Iav from pea aphid. The series can be described thus: Two-electrode voltage clamp in Xenopus laevis oocytes injected with Nan and Iav mRNA. The series is classed as cell-based, Acyrthosiphon pisum. As to conditions: 10 uM dPFQ; oocytes with Nan+Iav vs Nan or Iav alone; FIG. 4a. On the technique in general: Two-electrode voltage clamp holds a large cell at a set potential and records current.

For the next series, the system named is Nan. The series is classed as binding, Drosophila. As to conditions: for displacement of [3H]-afidopyropen from Nan-only sites: Ki not accurately determined, curves did not reach bottom plateaus. On the technique in general: Displacement assays read how much labelled ligand stays bound in the presence of the test substance.
The target in series [2] is T1, insect TRPV channels, Nan and Iav (Drosophila melanogaster, UniProt M9PI57+Q9W3W0).
T1 sequence (M9PI57 1-834): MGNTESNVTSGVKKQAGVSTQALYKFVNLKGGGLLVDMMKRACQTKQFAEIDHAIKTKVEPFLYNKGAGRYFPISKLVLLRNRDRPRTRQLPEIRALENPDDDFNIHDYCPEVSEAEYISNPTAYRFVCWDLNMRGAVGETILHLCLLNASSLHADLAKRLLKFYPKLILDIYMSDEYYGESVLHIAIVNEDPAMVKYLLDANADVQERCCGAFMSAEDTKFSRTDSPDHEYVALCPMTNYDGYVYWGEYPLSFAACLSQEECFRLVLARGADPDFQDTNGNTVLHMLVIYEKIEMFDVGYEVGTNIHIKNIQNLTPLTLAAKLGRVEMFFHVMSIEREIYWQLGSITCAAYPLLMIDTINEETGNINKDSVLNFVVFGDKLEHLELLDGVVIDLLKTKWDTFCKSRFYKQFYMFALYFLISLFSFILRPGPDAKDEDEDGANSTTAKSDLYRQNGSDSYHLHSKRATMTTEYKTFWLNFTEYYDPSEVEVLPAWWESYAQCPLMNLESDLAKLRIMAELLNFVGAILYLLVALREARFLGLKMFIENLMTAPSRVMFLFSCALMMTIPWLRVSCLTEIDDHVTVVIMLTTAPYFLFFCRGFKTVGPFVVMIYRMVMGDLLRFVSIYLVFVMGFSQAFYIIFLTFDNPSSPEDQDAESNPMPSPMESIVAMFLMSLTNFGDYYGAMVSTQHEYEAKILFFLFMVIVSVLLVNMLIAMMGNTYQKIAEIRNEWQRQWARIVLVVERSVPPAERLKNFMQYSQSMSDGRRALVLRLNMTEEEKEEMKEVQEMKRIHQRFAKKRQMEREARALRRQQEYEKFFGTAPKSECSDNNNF
T1 sequence (Q9W3W0 1-1123): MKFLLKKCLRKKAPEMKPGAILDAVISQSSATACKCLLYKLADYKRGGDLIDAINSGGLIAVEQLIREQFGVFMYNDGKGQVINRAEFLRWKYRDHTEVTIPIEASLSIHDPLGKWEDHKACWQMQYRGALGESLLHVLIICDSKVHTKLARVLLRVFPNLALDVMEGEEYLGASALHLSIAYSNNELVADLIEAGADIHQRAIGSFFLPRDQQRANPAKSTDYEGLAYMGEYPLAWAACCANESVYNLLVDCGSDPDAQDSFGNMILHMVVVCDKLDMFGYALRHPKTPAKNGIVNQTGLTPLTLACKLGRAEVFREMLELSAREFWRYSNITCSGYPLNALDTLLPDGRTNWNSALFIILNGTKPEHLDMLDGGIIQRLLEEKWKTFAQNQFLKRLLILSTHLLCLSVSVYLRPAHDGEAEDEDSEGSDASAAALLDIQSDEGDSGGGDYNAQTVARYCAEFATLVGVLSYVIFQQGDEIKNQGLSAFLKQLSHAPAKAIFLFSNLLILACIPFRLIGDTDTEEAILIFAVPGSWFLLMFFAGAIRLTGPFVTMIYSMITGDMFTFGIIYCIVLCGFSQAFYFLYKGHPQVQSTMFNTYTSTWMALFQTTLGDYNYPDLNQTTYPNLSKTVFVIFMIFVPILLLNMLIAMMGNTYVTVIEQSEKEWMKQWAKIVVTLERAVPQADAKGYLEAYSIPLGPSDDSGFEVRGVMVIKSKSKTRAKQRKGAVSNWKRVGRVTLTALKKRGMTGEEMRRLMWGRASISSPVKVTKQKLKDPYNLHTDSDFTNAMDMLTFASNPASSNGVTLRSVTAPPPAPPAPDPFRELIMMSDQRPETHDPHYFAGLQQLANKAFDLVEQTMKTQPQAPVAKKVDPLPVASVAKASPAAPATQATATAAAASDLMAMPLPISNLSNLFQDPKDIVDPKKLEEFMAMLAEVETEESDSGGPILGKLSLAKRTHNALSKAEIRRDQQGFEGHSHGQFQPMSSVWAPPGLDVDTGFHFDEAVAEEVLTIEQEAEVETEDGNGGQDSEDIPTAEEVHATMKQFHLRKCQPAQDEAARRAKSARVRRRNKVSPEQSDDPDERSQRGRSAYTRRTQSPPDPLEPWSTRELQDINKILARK
As to conditions: for EC50: read-out: half-maximal effective concentrations (EC50), calcium mobilization, CHO cells co-expressing Nan and Iav, FIG. 5. (In general: A change in cytosolic calcium serves as a functional read-out for many receptors and channels.)

The target of series [3] is T1, insect TRPV channels, Nan and Iav.
Series [4] can be described thus: Solubility observed in competition binding assay. As to conditions: at high concentrations, binding buffer.
Series [5] deals with American grasshoppers (Schistocerca americana). The series can be described thus: Leg extension assay in American grasshoppers. The series is classed as in vivo. As to conditions: injection, 10 mM in 100% DMSO, 3 μl per animal; assessed 40-60 minutes post-injection. The procedure: American grasshoppers (Schistocerca americana) were obtained from Dr. Hojun Song (University of Central Florida). Test compounds (10 mM in 100% DMSO), or vehicle (100% DMSO) were applied by injection through the abdominal intersegmental cuticle (3 μl per animal), using Hamilton syringe. The effects of compounds were assessed 40-60 minutes post-injection.

The target of series [6] is mouse TRPV channel, mTRPV4 (Mus musculus, UniProt Q9EPK8). The series is described as follows: Calcium response in CHO cells expressing mTRPV4. The series is classed as cell-based. As to conditions: CHO cells transduced with mTRPV4 adenovirus; FIG. 6.
Series [7] has as its system locusts (Locusta migratoria). As to conditions: injection, Ausborn et al., 2005; cited from earlier work.
In series [8] the target is T1, insect TRPV channels, Nan and Iav. The series is described as follows: cell-based.
Setting [9] is: Nan+Iav cells vs parental cells and cells expressing Nan or Iav alone, FIG. 3.
[10] abbreviates: Nan+Iav cells vs parental cells and cells expressing Nan or Iav alone, FIG. 4.

Chain of mouse TRPV channel, mTRPV4 (Q9EPK8 whole entry): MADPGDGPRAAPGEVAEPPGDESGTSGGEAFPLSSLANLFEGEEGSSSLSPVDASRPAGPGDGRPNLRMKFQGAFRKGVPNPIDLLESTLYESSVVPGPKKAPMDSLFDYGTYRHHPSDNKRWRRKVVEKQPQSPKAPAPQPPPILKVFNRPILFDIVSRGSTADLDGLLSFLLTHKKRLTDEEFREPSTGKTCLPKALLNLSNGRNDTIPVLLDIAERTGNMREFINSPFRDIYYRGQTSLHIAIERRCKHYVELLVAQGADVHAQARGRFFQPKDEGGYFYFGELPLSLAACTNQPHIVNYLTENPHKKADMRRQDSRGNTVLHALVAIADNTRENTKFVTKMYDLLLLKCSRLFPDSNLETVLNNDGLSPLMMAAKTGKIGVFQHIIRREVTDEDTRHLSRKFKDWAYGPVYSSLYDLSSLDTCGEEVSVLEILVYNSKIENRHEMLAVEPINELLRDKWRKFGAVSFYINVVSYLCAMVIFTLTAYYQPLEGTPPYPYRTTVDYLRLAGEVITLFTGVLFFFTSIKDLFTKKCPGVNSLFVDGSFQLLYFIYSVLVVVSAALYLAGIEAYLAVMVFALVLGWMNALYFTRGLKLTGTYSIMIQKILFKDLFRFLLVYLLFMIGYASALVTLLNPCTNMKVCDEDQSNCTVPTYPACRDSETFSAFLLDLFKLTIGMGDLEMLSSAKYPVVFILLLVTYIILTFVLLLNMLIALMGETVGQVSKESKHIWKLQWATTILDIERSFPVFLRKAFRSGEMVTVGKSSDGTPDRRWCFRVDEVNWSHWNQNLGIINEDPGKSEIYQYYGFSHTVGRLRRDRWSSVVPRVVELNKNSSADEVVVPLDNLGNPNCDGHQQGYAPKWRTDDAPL

Regarding `O=C1Nc2ccc(C(F)(C(F)(F)F)C(F)(F)F)cc2CN1NCc1cccnc1` [N-deacetylated pyrifluquinazon], the “inward and outward current responses” value in series [1] was “evoked both inward and outward current responses only in oocytes expressing both Nan and Iav”. Besides, in the series with Nan, the “displacement of [3H]-afidopyropen from Nan-only sites” value was “clearly displaced”. In series [2] (setting [9]), the calcium mobilization response entry is “only in cells co-infected with Nan and Iav viruses”. The EC50 in series [2] turned out to be 64 nM. Moreover, the membrane depolarization response entry in [3] (setting [10]) was “only in cells co-infected with Nan and Iav viruses”. Further, the solubility entry in [4] is “poor solubility”.
For `C[C@]1(COC(=O)C2CC2)[C@@H]2C[C@H](O)[C@@]3(C)Oc4cc(-c5cccnc5)oc(=O)c4[C@H](O)[C@@H]3[C@@]2(C)CC[C@@H]1OC(=O)C1CC1` [afidopyropen], the hind leg extension result in [5] is listed as “elicited hind leg extension”. In addition, in series [6], the “calcium response / activation of mTRPV4” value is on record as “failed to activate”. Further, on Nan (Nan-only expressing membranes, FIG. 9B, read-out: Ki, displacement assay), the Ki is 3.1 nM. The calcium mobilization response result in [2] (setting [9]) was “only in cells co-infected with Nan and Iav viruses”. In addition, the EC50 in series [2] was 1 nM. In series [3] (setting [10]), the membrane depolarization response entry is “only in cells co-infected with Nan and Iav viruses”.
For the compound `CC(C)C[C@H](NC(=O)c1cc2ccccc2s1)C(=O)N1CCN(C(=O)[C@H](CO)NS(=O)(=O)c2ccc(Cl)cc2Cl)CC1` [GSK1016790A, N-((1S)-1-{[4-((2S)-2-{[(2,4-dichlorophenyl)sulfonyl]amino}-3-hydroxypropanoyl)-1-piperazinyl]carbonyl}-3-methylbutyl)-1-benzothiophene-2-carboxamide], in series [6], the “calcium response / activation of mTRPV4” value is “evoked strong calcium response”.
Consider `CC1=NNC(=O)N(/N=C/c2cccnc2)C1` [pymetrozine], for which the results for the hind leg extension entry in [5] and in series [7] were “Elicit Characteristic Hind Leg Extension” and “produce characteristic hind leg extension”, respectively. Besides, the “displacement of [3H]-afidopyropen from Nan-only sites” value in the series on Nan is reported as “clearly displaced”. Also, in series [2], the calcium mobilization response result is “only in cells co-infected with Nan and Iav viruses”. The membrane depolarization response result in series [3] was “only in cells co-infected with Nan and Iav viruses”. For the same compound, the EC50 in [8] is 51 nM. The solubility entry in series [4] is on record as “poor solubility”.
